Assay results published in ChEMBL document CHEMBL1201862, “PubChem BioAssay data set” (2004).
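Five compound concentrations were applied to cells in 96-well plates for 48 hours; endpoints were derived by simple linear interpolation of the resulting dose-response curve. Abbreviation: GI50, concentration required for 50% inhibition of growth.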 Activity calls are given as the source filed them. Cut-off read from the data, not from the text of the source: active = GI50 up to about 1.1 µM and inactive = higher.

Legend:
Assay in all cases: NCI-60 cell line screen, 48 h
[1] = tested on: UO-31
[2] = tested on: Malme-3M
[3] = tested on: IGROV-1
[4] = tested on: TK-10
[5] = tested on: HCT-116
[6] = tested on: RPMI-8226
[7] = tested on: SW-620
[8] = tested on: A549
[9] = tested on: SF-295
[10] = tested on: SF-539
[11] = tested on: OVCAR-5
[12] = tested on: U-251
[13] = tested on: LOX IMVI
[14] = tested on: SK-MEL-5
[15] = tested on: CAKI-1
[16] = tested on: NCI-H226
[17] = tested on: SNB-75
[18] = tested on: SK-MEL-2
[19] = tested on: OVCAR-4
[20] = tested on: MOLT-4

Measured: GI50

O=C(O)C(Cc1ccc(O)cn1)NC(=O)C(F)(F)F (stereo not drawn)
inactive: [1] > 100 µM | [2] > 100 µM | [3] > 100 µM | [4] > 100 µM | [5] > 100 µM | [6] > 100 µM | [7] > 100 µM | [8] > 100 µM | [9] > 100 µM | [10] > 100 µM | [11] > 100 µM | [12] > 100 µM | [13] > 100 µM | [14] > 100 µM | [15] > 100 µM | [16] > 100 µM

CN(C)C(=O)C1CCC(=C2C(=O)OC(C)(C)OC2=O)N1C (stereo not drawn)
inactive: [17] > 100 µM | [18] > 100 µM | [1] > 100 µM | [2] > 100 µM | [3] > 100 µM | [4] > 100 µM | [19] > 100 µM | [5] > 100 µM | [7] > 100 µM | [8] > 100 µM | [9] > 100 µM | [10] > 100 µM | [11] > 100 µM | [12] > 100 µM | [13] > 100 µM | [14] > 100 µM | [15] > 100 µM | [16] > 100 µM | [20] > 100 µM

O=C(c1ccco1)C1CC(c2c(O)ccc3ccccc23)=NN1 (stereo not drawn)
inactive: [17] 11.8 µM | [18] 16.6 µM | [1] 11.1 µM | [2] 16 µM | [3] 13.3 µM | [4] 14.3 µM | [19] 25.4 µM | [6] 13.6 µM | [7] 11.8 µM | [9] 11.2 µM | [10] 13.1 µM | [11] 14.9 µM | [12] 14.7 µM | [14] 13.9 µM | [15] 16.2 µM | [16] 15.2 µM | [20] 12.1 µM

CN1C2CCC1CC(C)(O)C2 (stereo not drawn)
inactive: [18] > 100 µM | [1] > 100 µM | [2] > 100 µM | [4] > 100 µM | [5] > 100 µM | [6] > 100 µM | [7] > 100 µM | [9] > 100 µM | [12] > 100 µM | [13] > 100 µM | [16] > 100 µM | [20] > 100 µM

CC(C)=C1C2CC3(C)CCC2(C)CCC13.CC1=CCC2C3(C)CCC2(C(C)C)C1C3 (stereo not drawn)
inactive: [17] 23.2 µM | [18] 17.5 µM | [1] 26.7 µM | [2] 43.8 µM | [3] 16.5 µM | [4] 25.5 µM | [19] 26.1 µM | [5] 31.6 µM | [6] 24.9 µM | [7] 23.7 µM | [8] 19.7 µM | [9] 20 µM | [10] 27.4 µM | [11] 18.9 µM | [12] 23.4 µM | [13] 28.8 µM | [14] 10 µM | [15] 17.3 µM | [20] 31.9 µM

COc1ccc(N[S+]([O-])c2ccc(-c3ccccc3)cc2)cc1 (stereo not drawn)
inactive: [17] 22.3 µM | [1] > 100 µM | [2] > 100 µM | [3] 8.55 µM | [4] > 100 µM | [5] > 100 µM | [6] > 100 µM | [7] 70.8 µM | [8] > 100 µM | [9] > 100 µM | [10] > 100 µM | [11] > 100 µM | [12] 35.1 µM | [13] 19.5 µM | [14] > 100 µM | [15] > 100 µM | [16] > 100 µM | [20] > 100 µM

COC(=O)C1(Cc2ccccc2)Cc2cc3c(cc2C1)CCC3
inactive: [17] 20.3 µM | [18] 18.5 µM | [1] 24 µM | [2] 22.3 µM | [3] 24.5 µM | [4] 68.7 µM | [19] 30.7 µM | [5] 22 µM | [6] 15.4 µM | [7] 36.1 µM | [8] 29.6 µM | [9] 37.5 µM | [10] 41.3 µM | [11] 27.7 µM | [12] 22.4 µM | [13] 18.6 µM | [14] 17.2 µM | [16] 22 µM | [20] 15.5 µM

Nc1n[nH]c(CCCCCCCc2nnc(N)[nH]2)n1
inactive: [17] > 100 µM | [18] > 100 µM | [1] > 100 µM | [2] > 100 µM | [4] > 100 µM | [19] > 100 µM | [5] > 100 µM | [6] > 100 µM | [10] > 100 µM | [11] > 100 µM | [12] > 100 µM | [13] > 100 µM | [20] > 100 µM
